Measurements as given in ChEMBL document CHEMBL4808216, “Gut-Restricted Selective Cyclooxygenase-2 (COX-2) Inhibitors for Chemoprevention of Colorectal Cancer” (J Med Chem, 2021).
In brackets after ≈: the same amount, converted by molar mass. Activity calls are given as the source filed them. The rule behind the calls is not given here.

How the values were obtained:
[1] = Protein binding in human colon assessed as unbound fraction; format: ADME, tissue-based
[2] = target: T1, Prostaglandin G/H synthase 1 (Homo sapiens, UniProt P23219); assay: Inhibition of COX1 in human whole blood assessed as reduction in calcium ionophore-stimulated TXB2 production incubated for 1 hr by ELISA; format: tissue-based
[3] = Drug concentration in C57BL/6J mouse colon at 10 mg/kg, po administered as cassette dose measured at 4 hrs by LC/MS/MS analysis; format: ADME, organism-based; conditions: read-out: Ct
[4] = target: T2, Prostaglandin G/H synthase 2 (Homo sapiens, UniProt P35354); assay: Inhibition of human recombinant COX-2 assessed as reduction in peroxidase activity using arachidonic acid as substrate preincubated for 60 mins followed by substrate addition for 2 secs by ADPH based fluorometric analysis
T2 sequence (P35354 whole entry): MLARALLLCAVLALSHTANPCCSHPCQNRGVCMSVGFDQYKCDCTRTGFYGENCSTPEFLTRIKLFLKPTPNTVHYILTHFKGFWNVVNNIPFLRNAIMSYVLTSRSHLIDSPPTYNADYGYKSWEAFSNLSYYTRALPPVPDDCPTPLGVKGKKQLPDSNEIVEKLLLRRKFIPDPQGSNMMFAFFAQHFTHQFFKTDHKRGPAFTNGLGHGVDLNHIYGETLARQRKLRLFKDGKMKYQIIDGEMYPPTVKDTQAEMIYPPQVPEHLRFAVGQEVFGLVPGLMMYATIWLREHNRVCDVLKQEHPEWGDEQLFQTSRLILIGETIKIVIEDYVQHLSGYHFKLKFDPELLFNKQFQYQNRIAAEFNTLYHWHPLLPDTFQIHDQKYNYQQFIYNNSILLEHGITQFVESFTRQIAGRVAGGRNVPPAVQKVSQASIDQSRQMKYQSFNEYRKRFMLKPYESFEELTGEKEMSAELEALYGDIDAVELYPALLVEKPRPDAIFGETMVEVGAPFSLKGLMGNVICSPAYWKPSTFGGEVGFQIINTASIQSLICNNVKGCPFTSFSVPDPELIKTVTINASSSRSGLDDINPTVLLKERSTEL

[5] = target: T2, Prostaglandin G/H synthase 2; assay: Inhibition of human recombinant COX-2 using arachidonic acid as substrate preincubated for 60 mins followed by substrate addition for 2 secs by ADPH based fluorometric analysis
[6] = Drug concentration in C57BL/6J mouse plasma at 10 mg/kg, po administered as cassette dose measured at 4 hrs by LC/MS/MS analysis; format: ADME, organism-based
Mus musculus [7] = assay: Antitumor activity in C57BL/6J mouse model of spontaneous GI-tract tumor Apc-min assessed as mouse survival at 100 mg/kg, po administered daily as suspension and measured at day 82 by Kaplan-Meier method; format: functional
[8] = target: T1, Prostaglandin G/H synthase 1; assay: Inhibition of COX1 (unknown origin) expressed in HEK293 TRex cells assessed as reduction in PGE2 production using arachidonic acid as substrate preincubated for 60 mins followed by substrate addition for 1 hr in presence of 10% FBS by RapidFire High-Throughput Mass Spectrometry; format: ADME, cell-based, HEK293-T-REx
[9] = target: T2, Prostaglandin G/H synthase 2; assay: Inhibition of COX2 (unknown origin) expressed in HEK293 TRex cells assessed as reduction in PGE2 production using arachidonic acid as substrate preincubated for 60 mins followed by substrate addition for 1 hr in presence of 10% FBS by RapidFire High-Throughput Mass Spectrometry; format: cell-based, HEK293-T-REx
[10] = target: T1, Prostaglandin G/H synthase 1; assay: Inhibition of human recombinant COX-1 assessed as reduction in peroxidase activity using arachidonic acid as substrate preincubated for 60 mins followed by substrate addition for 2 secs by ADPH based fluorometric analysis; format: ADME
Mus musculus [11] = assay: Antitumor activity in C57BL/6J mouse model of spontaneous GI-tract tumor Apc-min assessed as reduction in total ileum polyp area at 30 to 300 mg/kg, po administered as suspension for 10 weeks; format: functional, organism-based; conditions: dose 30-300 mg/kg
Mus musculus [12] = assay: Antitumor activity in C57BL/6J mouse model of spontaneous GI-tract tumor Apc-min assessed as change in ileum polyp size at 30 to 300 mg/kg, po administered as suspension for 10 weeks; format: functional; conditions: dose 30-300 mg/kg
Mus musculus [13] = assay: Chemo-protective activity in C57BL/6J mouse model of spontaneous GI-tract tumor Apc-min assessed as 18F-FDG uptake in ileum at 300 mg/kg, po incorporated into chow diet administered daily for 2 weeks and measured after 14 days by ex vivo PET imaging analysis relative to control; format: functional
[14] = Equilibrium solubility of compound in FASSIF at pH 6.5; format: physicochemical
[15] = target: T3, Prostaglandin G/H synthase 2 (Mus musculus, UniProt Q05769); assay: In vivo inhibition of COX2 in po dosed C57BL/6J mouse model of spontaneous GI-tract tumor Apc-min assessed as chemopreventive effect by measuring reduction in polyp area and relevant ileum exposures; format: functional, organism-based
T3 sequence (Q05769 whole entry): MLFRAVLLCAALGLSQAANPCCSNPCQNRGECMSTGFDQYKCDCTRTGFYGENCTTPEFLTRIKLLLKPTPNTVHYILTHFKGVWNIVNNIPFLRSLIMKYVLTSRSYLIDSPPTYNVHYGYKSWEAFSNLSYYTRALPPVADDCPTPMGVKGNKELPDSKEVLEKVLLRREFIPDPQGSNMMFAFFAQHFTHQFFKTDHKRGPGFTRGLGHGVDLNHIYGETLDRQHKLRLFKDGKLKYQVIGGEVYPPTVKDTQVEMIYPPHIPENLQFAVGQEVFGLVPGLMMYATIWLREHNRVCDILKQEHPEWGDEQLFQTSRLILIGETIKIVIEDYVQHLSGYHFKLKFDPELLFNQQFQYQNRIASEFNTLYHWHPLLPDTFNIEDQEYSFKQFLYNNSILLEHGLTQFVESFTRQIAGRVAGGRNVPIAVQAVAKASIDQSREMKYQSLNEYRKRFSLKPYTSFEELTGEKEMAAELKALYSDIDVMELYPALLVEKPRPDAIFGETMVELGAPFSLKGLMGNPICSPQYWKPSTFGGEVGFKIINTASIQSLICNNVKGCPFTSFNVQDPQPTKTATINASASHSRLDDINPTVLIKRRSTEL

[16] = Drug concentration in C57BL/6J mouse portal vein plasma at 10 mg/kg, po administered as cassette dose measured at 4 hrs by LC/MS/MS analysis; format: ADME, organism-based
in vivo = conditions: C57BL/6J, mouse, colon / portal vein plasma, po, 10 mg/kg
Description: Ratio of drug concentration in C57BL/6J mouse colon to portal vein plasma at 10 mg/kg, po measured after 4 hr by liquid chromatographic triple-quadrupole mass spectrometric method

Mus musculus [17] = assay: Antitumor activity in C57BL/6J mouse model of spontaneous GI-tract tumor Apc-min assessed as reduction in total ileum polyp number at 30 to 300 mg/kg, po administered as suspension for 10 weeks; format: functional, organism-based; conditions: dose 30-300 mg/kg
[18] = Protein binding in human plasma assessed as unbound fraction; format: ADME, cell-free
[19] = target: T2, Prostaglandin G/H synthase 2; assay: Inhibition of COX2 in human whole blood assessed as reduction in LPS stimulated PGE2 production incubated for 1 hr by ELISA; format: tissue-based
Mus musculus [20] = assay: Antitumor activity in C57BL/6J mouse model of spontaneous GI-tract tumor Apc-min assessed as reduction in total ileum polyp area at 300 mg/kg, po administered as suspension for 10 to 12 weeks; format: functional; conditions: time 10-12 weeks, read-out: TGI
Homo sapiens = species on record: Homo sapiens; assay: Selectivity ratio of IC50 for COX1 in human whole blood assessed as reduction in calcium ionophore-stimulated TXB2 production to IC50 for COX2 in human whole blood assessed as reduction in LPS stimulated PGE2 production; format: tissue-based
[21] = target: T4, Prostaglandin G/H synthase 2 (Homo sapiens) (UniProt P35354)
T4 sequence (whole entry): T2 sequence (P35354 whole entry)
Description: Protein occupancy at human recombinant COX-2 assessed as dissociation half life

[22] = target: T3, Prostaglandin G/H synthase 2; assay: In vivo inhibition of COX2 in po dosed C57BL/6J mouse model of spontaneous GI-tract tumor Apc-min assessed as chemopreventive effect by measuring reduction in polyp area and relevant plasma exposures; format: functional, organism-based
[23] = Ratio of drug concentration in C57BL/6J mouse colon to plasma at 10 mg/kg, po measured after 4 hr by liquid chromatographic triple-quadrupole mass spectrometric method; format: ADME, organism-based
[24] = Oral bioavailability in Sprague Dawley rat at 10 mg/kg measured up to 24 hrs by LC-MS analysis; format: ADME, organism-based; conditions: in vivo
[25] = Tmax in C57BL/6J mouse at 10 mg/kg, po administered as cassette dose measured at 4 hrs by liquid chromatographic triple-quadrupole mass spectrometric method; format: ADME, organism-based; conditions: in vivo
[26] = Drug metabolism in mouse hepatocytes assessed as metabolic turnover at 10 uM incubated up to 2 hrs by LC/MS-MS analysis; format: ADME, cell-based, Hepatocyte
[27] = Half life in C57BL/6J mouse at 2 mg/kg, iv measured after 0.08 to 24 hrs; format: ADME, organism-based; conditions: in vivo, 2 mg/kg, time 0.08-24 hrs
[28] = Half life in human hepatocytes; format: ADME, cell-based, Hepatocyte
[29] = Drug concentration in C57BL/6J mouse colon at 10 mg/kg, po administered as cassette dose measured at 2 hrs by liquid chromatographic triple-quadrupole mass spectrometric method; format: ADME, organism-based; conditions: read-out: Ct
[30] = Oral bioavailability in dog at 10 mg/kg measured up to 24 hrs by LC-MS analysis; format: ADME, organism-based, Canis lupus familiaris; conditions: in vivo
[31] = Oral bioavailability in Cynomolgus monkey at 10 mg/kg measured up to 24 hrs by LC-MS analysis; format: ADME, organism-based, Macaca fascicularis; conditions: in vivo
[32] = Half life in human liver microsomes; format: ADME, Microsome
[33] = Oral bioavailability in C57BL/6J mouse at 10 mg/kg measured up to 24 hrs by LC-MS analysis; format: ADME, organism-based; conditions: in vivo
HEK293 = assay: Selectivity ratio of IC50 for COX1 (unknown origin) expressed in HEK293 TRex cells assessed as reduction in PGE2 production to IC50 for COX2 (unknown origin) expressed in HEK293 TRex cells assessed as reduction in PGE2 production; format: cell-based; conditions: Homo sapiens
[34] = Half life in mouse liver microsomes; format: ADME, Microsome
[35] = Volume of distribution at steady state in C57BL/6J mouse at 2 mg/kg, iv measured after 0.08 to 24 hrs; format: ADME, organism-based; conditions: in vivo, 2 mg/kg, time 0.08-24 hrs
[36] = Half life in mouse hepatocytes; format: ADME, cell-based, Hepatocyte
[37] = Drug metabolism in human hepatocytes assessed as metabolic turnover at 10 uM incubated up to 2 hrs by LC/MS-MS analysis; format: ADME, cell-based, Hepatocyte; conditions: read-out: Drug metabolism

T1 sequence (P23219 whole entry): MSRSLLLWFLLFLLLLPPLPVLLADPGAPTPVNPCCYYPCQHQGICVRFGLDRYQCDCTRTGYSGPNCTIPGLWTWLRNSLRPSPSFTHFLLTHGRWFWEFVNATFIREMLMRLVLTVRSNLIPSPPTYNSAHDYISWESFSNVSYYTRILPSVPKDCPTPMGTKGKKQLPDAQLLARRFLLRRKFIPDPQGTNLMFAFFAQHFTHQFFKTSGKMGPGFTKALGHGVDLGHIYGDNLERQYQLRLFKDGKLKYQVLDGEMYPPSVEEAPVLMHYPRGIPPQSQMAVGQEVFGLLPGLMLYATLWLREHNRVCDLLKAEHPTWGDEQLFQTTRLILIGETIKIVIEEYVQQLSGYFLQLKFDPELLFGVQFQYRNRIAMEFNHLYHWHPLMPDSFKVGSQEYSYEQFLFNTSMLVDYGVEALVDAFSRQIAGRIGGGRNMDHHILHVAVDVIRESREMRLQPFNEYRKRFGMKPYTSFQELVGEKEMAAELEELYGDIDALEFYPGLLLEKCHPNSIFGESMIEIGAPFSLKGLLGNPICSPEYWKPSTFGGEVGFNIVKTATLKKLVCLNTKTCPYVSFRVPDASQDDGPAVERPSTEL

| Compound | fraction unbound [1] | IC50 [2] [nM] | concentration at 4 h [3] [ng/g] | IC50 [4] [nM] | Ki [5] [nM] | concentration at 4 h [6] [ng/mL] | IC50 [8] [nM] | IC50 [9] [nM] | IC50 [10] [nM] | Activity (Mus musculus [13]) [%] | solubility thermodynamic [14] [µM] | concentration at 4 h [16] [ng/mL] | Kp at 4 h (in vivo) | fraction unbound [18] | IC50 [19] [nM] | inhibition in vivo at 300 mg/kg (Mus musculus [20]) [%] | Ratio IC50 (Homo sapiens) | T1/2 [21] [min] | other results |
| --- | --- | --- | --- | --- | --- | --- | --- | --- | --- | --- | --- | --- | --- | --- | --- | --- | --- | --- | --- |
| CC(C)(O)COc1nc(OCCC(F)(F)F)c(CO)cc1-c1ccc(S(C)(=O)=O)cc1 | 0.224 | 181000 | 15500 | 500 | 32 | 3.4 | 130 | 130 | > 50000 | 48.6 | 44.4 (≈ 20.6 µg/mL) | 179 | 101 | 0.01 | 877 | 48.7 | > 200 | 1320 | Survival (Mus musculus [7]): 74 days; Activity (Mus musculus [11]): Active; Activity (Mus musculus [12]): >2 mm; IC50 [15]: 742 nM; Activity (Mus musculus [17]): Active; IC50 [22]: 1.3 nM; Ratio ([23]; other tissue, 10 mg/kg, 4 h): 5264 |
| CCCCOc1nc(OCC(C)(C)O)c(-c2ccc(S(C)(=O)=O)cc2)cc1CO | 0.025 | > 180000 | 4350 | 226 | 12 | 3 | 14100 | 47 | > 50000 | 48.9 | 66.5 (≈ 28.2 µg/mL) | 24.8 | 29.7 | 0.009 | 346 | 35.1 | > 200 | 1080 | bioavailability [24]: 1.5%; Tmax [25]: 15 min; Drug metabolism [26]: 79.6%; t1/2 [27]: 13.8 min; half-life [28]: 2.4 min; concentration at 2 h [29]: 6510 ng/g; bioavailability [30]: 74%; bioavailability [31]: 4.87%; half-life [32]: 27.8 min; bioavailability [33]: 4.25%; Ratio IC50 (HEK293): 300; half-life [34]: 2.7 min; Vdss [35]: 4.92 L/kg; t1/2 [36]: 1.9 min; metabolised at 2 h, 10 µM [37]: 100%; Kp at 4 h ([23]; C57BL/6J, colon / plasma): 1620 |
